Earlier results as cited in patent US11465999B2, “Process for preparing Alectinib or a pharmaceutically acceptable salt thereof” (FRESENIUS KABI ONCOLOGY LIMITED, priority 2017, dated 2022).
Where a name gives a salt, the structure may show the parent alone.

What was measured:
[1] = in water across the whole pH range and in different solvents
[2] = high humidity: absorbs moisture to form a tetrahydrate; low humidity: dehydrates to anhydrate; drying

Row | SMILES | solubility [1] | stability of crystalline form [2]
1 | CCc1cc2c(cc1N1CCC(N3CCOCC3)CC1)C(C)(C)c1[nH]c3cc(C#N)ccc3c1C2=O [Alectinib hydrochloride] | insoluble | 
2 | CCc1cc2c(cc1N1CCC(N3CCOCC3)CC1)C(C)(C)c1[nH]c3cc(C#N)ccc3c1C2=O.Cl [type III] |  | converts to type II on drying
3 | CCc1cc2c(cc1N1CCC(N3CCOCC3)CC1)C(C)(C)c1[nH]c3cc(C#N)ccc3c1C2=O.Cl [type II] |  | not stable
